From patent US10543198B2 (Celgene Quanticel Research, Inc., priority 2014, dated 2020) come the findings set out here.

The assay deals with full-length human LSD1 (Homo sapiens (Human), UniProt O60341). In words: In Vitro Enzyme Inhibition Assay - LSD-1 (TR-FRET). It counts as biochemical. The conditions noted are these: 0.1 nM LSD1, H3K4me1-biotin peptide. As to the method:
This assay determines the ability of a test compound to inhibit LSD1 demethylase activity.
The enzymatic assay of LSD1 activity is based on Time Resolved-Fluorescence Resonance Energy Transfer (TR-FRET) detection.
The ability of the compounds disclosed herein to inhibit LSD1 activity was quantified and the respective IC50 value was determined.
As to `Cc1ccc(-c2cc(NC[C@@H]3CCNC3)nn2-c2ccc(C#N)cc2)cc1` [Example 45, 4-[5-(4-methylphenyl)-3-[[(3R)-pyrrolidin-3-yl]methylamino]pyrazol-1-yl]benzonitrile], the IC50 – broadly, the concentration that inhibits the measured activity by half – was less than 100 nM.

Regarding `Cc1ccc(-c2nc3cnn(CC4CCNC4)c3cc2-c2ccc(C#N)cc2)cc1` (stereo not shown) [Example 13, 4-[5-(4-methylphenyl)-1-(pyrrolidin-3-ylmethyl)pyrazolo[4,3-b]pyridin-6-yl]benzonitrile], the IC50 is less than 100 nM. To `Cc1ccc(-c2cnc(N3CCC4(CCNC4)CC3)nc2-c2ccc(C#N)cc2)cc1` [Example 39, 4-(2-{2,8-diazaspiro[4.5]decan-8-yl}-5-(4-methylphenyl)pyrimidin-4-yl)benzonitrile] belongs less than 100 nM. To `Cc1ccc(-c2cc(NCC3CCNCC3)nn2-c2ccc(C#N)cc2)cc1` [Example 46, 4-[5-(4-methylphenyl)-3-(piperidin-4-ylmethylamino)pyrazol-1-yl]benzonitrile] belongs less than 100 nM. On to `Cc1ccc(-c2cnc(NC3CCNCC3)nc2-c2ccc(C#N)cc2)cc1` [Example 30, 4-[5-(4-methylphenyl)-2-[(piperidin-4-yl)amino]pyrimidin-4-yl]benzonitrile], for which the IC50 was less than 100 nM. In the case of `Cc1ccc(-c2cnc(N3CCC4(CCCN4)CC3)nc2-c2ccc(C#N)cc2)cc1` [Example 40, 4-(2-{1,8-diazaspiro[4.5]decan-8-yl}-5-(4-methylphenyl)pyrimidin-4-yl)benzonitrile] it was less than 100 nM; in that of `Cc1ccc(-c2nc3cnn(CC4CCNCC4)c3cc2-c2ccc(C#N)cc2)cc1` [Example 14, 4-[5-(4-methylphenyl)-1-(piperidin-4-ylmethyl)pyrazolo[4,3-b]pyridin-6-yl]benzonitrile], less than 100 nM; in that of `Cc1ccc(-c2cnc(NCC3(F)CCNC3)nc2-c2ccc(C#N)cc2)cc1` (racemic) [Example 28, (±)-4-(2-{[(3-fluoropyrrolidin-3-yl)methyl]amino}-5-(4-methylphenyl)pyrimidin-4-yl)benzonitrile], less than 100 nM.

In turn, `Cc1ccc(-c2nc3ccn(CCCN)c3cc2-c2ccc(C#N)cc2)cc1` [Example 12, 4-[1-(3-aminopropyl)-5-(4-methylphenyl)pyrrolo[3,2-b]pyridine-6-yl]benzonitrile] returned a half-inhibitory concentration (IC50) of less than 100 nM. To `Cc1ccc(-c2cnc(N3CCC4(CCNC4)C3)nc2-c2ccc(C#N)cc2)cc1` (stereo not shown) [Example 35, 4-(2-{2,7-diazaspiro[4.4]nonan-2-yl}-5-(4-methylphenyl)pyrimidin-4-yl)benzonitrile] belongs less than 100 nM; to `Cc1ccc(-c2nc3cnn(C[C@H]4[C@@H]5CNC[C@@H]54)c3cc2-c2ccc(C#N)cc2)cc1` [Example 15, 4-[1-[[(1S,5R)-3-azabicyclo[3.1.0]hexan-6-yl]methyl]-5-(4-methylphenyl)pyrazolo[4,3-b]pyridin-6-yl]benzonitrile], less than 100 nM; to `Cc1ccc(-c2nc3ccn(C[C@@H]4CCNC4)c3cc2-c2ccc(C#N)cc2)cc1` [Example 1, 4-[5-(4-methylphenyl)-1-[[(3R)-pyrrolidin-3-yl]methyl]pyrrolo[3,2-b]pyridin-6-yl]benzonitrile], less than 100 nM. To `N#Cc1ccc(-c2cc3c(ccn3C[C@H]3CNCCO3)nc2-c2ccc(F)cc2)cc1` [Example 11, 4-[5-(4-fluorophenyl)-1-[[(2R)-morpholin-2-yl]methyl]pyrrolo[3,2-b]pyridin-6-yl]benzonitrile] belongs less than 100 nM; to `Cc1ccc(-c2cnc(NC[C@H]3CCNC3)nc2-c2ccc(C#N)cc2)cc1` [Example 16, 4-[5-(4-methylphenyl)-2-{[(3S)-pyrrolidin-3-ylmethyl]amino}pyrimidin-4-yl]benzonitrile], less than 100 nM.

`Cc1ccc(-c2cnc(N3C[C@H]4CNC[C@H]4C3)nc2-c2ccc(C#N)cc2)cc1` [Example 21, 4-{2-[(3aR,6aS)-octahydropyrrolo[3,4-c]pyrrol-2-yl]-5-(4-methylphenyl)pyrimidin-4-yl}benzonitrile] showed a half-maximal inhibitory concentration (IC50) of less than 100 nM. In the case of `N#Cc1ccc(-c2nc(N3CC[C@@H]4CNC[C@@H]4CC3)ncc2-c2ccc(F)cc2)cc1` [Example 24, 4-{2-[(3aR,8aS)-decahydropyrrolo[3,4-d]azepin-6-yl]-5-(4-fluorophenyl)pyrimidin-4-yl}benzonitrile] it was less than 100 nM; in that of `N#Cc1ccc(-c2cc3c(ccn3C[C@H]3CCNC3)nc2-c2ccc(F)cc2)cc1` [Example 5, 4-[5-(4-fluorophenyl)-1-[[(3S)-pyrrolidin-3-yl]methyl]pyrrolo[3,2-b]pyridin-6-yl]benzonitrile], less than 100 nM; in that of `N#Cc1ccc(-c2nc(NC[C@H]3CCNC3)ncc2C#CC2CC2)cc1` [Example 26, 4-[5-(2-cyclopropylethynyl)-2-{[(3S)-pyrrolidin-3-ylmethyl]amino}pyrimidin-4-yl]benzonitrile], less than 100 nM. In the case of `Cc1ccc(-c2nc3ccn(C[C@H]4CCNC4)c3cc2-c2ccc(C#N)cc2)cc1` [Example 3, 4-[5-(4-methylphenyl)-1-[[(3S)-pyrrolidin-3-yl]methyl]pyrrolo[3,2-b]pyridin-6-yl]benzonitrile] it was less than 100 nM.

Turning to `Cc1ccc(-c2cc(NCC3CCNC3)nn2-c2ccc(C#N)cc2)cc1` (stereo not shown) [Example 43, 4-[5-(4-methylphenyl)-3-(pyrrolidin-3-ylmethylamino)pyrazol-1-yl]benzonitrile], the concentration for half-maximal inhibition (IC50) is less than 100 nM.

`N#Cc1ccc(-c2cc3c(ccn3C[C@H]3CCNC3)nc2N2CCOCC2)cc1` [Example 7, 4-[5-morpholin-4-yl-1-[[(3S)-pyrrolidin-3-yl]methyl]pyrrolo[3,2-b]pyridin-6-yl]benzonitrile] yielded a 50% inhibitory concentration (IC50) of less than 100 nM. In the case of `Cc1ccc(-c2cnc(OC[C@@H]3CCNC3)nc2-c2ccc(C#N)cc2)cc1` [Example 20, 4-[5-(4-methylphenyl)-2-[(3R)-pyrrolidin-3-ylmethoxy]pyrimidin-4-yl]benzonitrile] it was less than 100 nM; in that of `Cc1ccc(-c2cc(NC[C@H]3[C@@H]4CNC[C@@H]43)nn2-c2ccc(C#N)cc2)cc1` [Example 47, 4-[3-[[(1S,5R)-3-azabicyclo[3.1.0]hexan-6-yl]methylamino]-5-(4-methylphenyl)pyrazol-1-yl]benzonitrile], less than 100 nM; in that of `Cc1ccc(-c2cc(NC[C@H]3CCNC3)nn2-c2ccc(C#N)cc2)cc1` [Example 44, 4-[5-(4-methylphenyl)-3-[[(3S)-pyrrolidin-3-yl]methylamino]pyrazol-1-yl]benzonitrile], less than 100 nM. To `Cc1ccc(-c2cnc(NCC3CCNCC3)nc2-c2ccc(C#N)cc2)cc1` [Example 32, 4-[5-(4-methylphenyl)-2-[(piperidin-4-ylmethyl)amino]pyrimidin-4-yl]benzonitrile] belongs less than 100 nM; to `Cc1ccc(-c2cnc(N3CCC4(CCNCC4)C3)nc2-c2ccc(C#N)cc2)cc1` [Example 36, 4-(2-{2,8-diazaspiro[4.5]decan-2-yl}-5-(4-methylphenyl)pyrimidin-4-yl)benzonitrile], less than 100 nM; to `Cc1ccc(-c2cnc(N3CC[C@@H]4CNC[C@@H]4CC3)nc2-c2ccc(C#N)cc2)cc1` [Example 23, 4-{2-[(3aR,8aS)-decahydropyrrolo[3,4-d]azepin-6-yl]-5-(4-methylphenyl)pyrimidin-4-yl}benzonitrile], less than 100 nM. In the case of `N#Cc1ccc(-c2nc(NC[C@H]3CCNC3)ncc2-c2ccc(F)cc2)cc1` [Example 18, 4-[5-(4-fluorophenyl)-2-{[(3S)-pyrrolidin-3-ylmethyl]amino}pyrimidin-4-yl]benzonitrile] it was less than 100 nM; in that of `Cc1ccc(-c2cnc(N3CCC4CNCC4C3)nc2-c2ccc(C#N)cc2)cc1` (stereo not shown) [Example 22, 4-[5-(4-methylphenyl)-2-{octahydro-1H-pyrrolo[3,4-c]pyridin-5-yl}pyrimidin-4-yl]benzonitrile], less than 100 nM; in that of `N#Cc1ccc(-c2nc(NC[C@H]3CCNC3)ncc2-c2ccc(Cl)cc2)cc1` [Example 19, 4-[5-(4-chlorophenyl)-2-{[(3S)-pyrrolidin-3-ylmethyl]amino}pyrimidin-4-yl]benzonitrile], less than 100 nM. `Cc1ccc(-c2nc3ccn(C[C@H]4CNCCO4)c3cc2-c2ccc(C#N)cc2)cc1` [Example 10, 4-[5-(4-methylphenyl)-1-[[(2R)-morpholin-2-yl]methyl]pyrrolo[3,2-b]pyridin-6-yl]benzonitrile] gave a half-maximal inhibitory concentration (IC50) of less than 100 nM. To `N#Cc1ccc(-c2cc3c(ccn3C[C@@H]3CCNC3)nc2Cl)cc1` [Example 2, 4-[5-chloro-1-[[(3R)-pyrrolidin-3-yl]methyl]pyrrolo[3,2-b]pyridin-6-yl]benzonitrile] belongs 100 to 1000 nM. In turn, `Cc1ccc(-c2cnc(NC3CCCNC3)nc2-c2ccc(C#N)cc2)cc1` (racemic) [Example 29, (±)-4-[5-(4-methylphenyl)-2-[(piperidin-3-yl)amino]pyrimidin-4-yl]benzonitrile] came in with a 50% inhibitory concentration (IC50) of less than 100 nM. To `N#Cc1ccc(-c2nc(NC[C@H]3CCNC3)ncc2-c2ccc(C(F)(F)F)cc2)cc1` [Example 25, 4-(2-{[(3S)-pyrrolidin-3-ylmethyl]amino}-5-[4-(trifluoromethyl)phenyl]pyrimidin-4-yl)benzonitrile] belongs less than 100 nM.
